Type in all cases: in vivo
The subject of series [1] is Yellow fever mosquito (Aedes aegypti). The series is described as follows: whole plant or invertebrate. The settings on record: 48 h, freshly hatched larvae in tap water, assessed after 2 days, read-out: larval mortality in comparison with untreated controls. As to the method: B.6. Yellow Fever Mosquito (Aedes aegypti)
For evaluating control of yellow fever mosquito (Aedes aegypti) the test unit consisted of 96-well-microtiter plates containing 200 μl of tap water per well and 5-15 freshly hatched A. aegypti larvae. The active compounds were formulated using a solution containing 75% (v/v) water and 25% (v/v) DMSO. Different concentrations of formulated compounds or mixtures were sprayed onto the insect diet at 2.5 μl, using a custom built micro atomizer, at two replications.
After application, microtiter plates were incubated at 28+1° C., 80+5% RH for 2 days. Larval mortality was then visually assessed.

For series [2], the system named is Tobacco budworm (Heliothis virescens). The series is described as follows: Tobacco budworm (Heliothis virescens) microtiter diet test, egg and larval mortality. The settings on record: 120 h, sprayed onto insect diet, assessed after 5 days, read-out: egg and larval mortality in comparison with untreated controls. As to the method: B.5. Tobacco Budworm (Heliothis virescens)
For evaluating control of tobacco budworm (Heliothis virescens) the test unit consisted of 96-well-microtiter plates containing an insect diet and 15-25 H. virescens eggs.
The compounds were formulated using a solution containing 75% v/v water and 25% v/v DMSO. Different concentrations of formulated compounds were sprayed onto the insect diet at 10 μl, using a custom built micro atomizer, at two replications.
After application, microtiter plates were incubated at about 28±1° C. and about 80±5% relative humidity for 5 days. Egg and larval mortality was then visually assessed.

In series [3] the test system is Orchid thrips (Dichromothrips corbetti). Description: Orchid thrips (Dichromothrips corbetti) floral-immersion test. The settings on record: adult thrips, 72 hours after treatment, read-out: mortality in comparison with untreated controls. The method, then:
B.7. Orchid Thrips (Dichromothrips corbetti)
Dichromothrips corbetti adults used for bioassay were obtained from a colony maintained continuously under laboratory conditions. For testing purposes, the test compound is diluted in a 1:1 mixture of acetone:water (vol:vol), plus Kinetic® HV at a rate of 0.01% v/v.
Thrips potency of each compound was evaluated by using a floral-immersion technique. All petals of individual, intact orchid flowers were dipped into treatment solution and allowed to dry in Petri dishes. Treated petals were placed into individual re-sealable plastic along with about 20 adult thrips. All test arenas were held under continuous light and a temperature of about 28° C. for duration of the assay. After 3 days, the numbers of live thrips were counted on each petal. The percent mortality was recorded 72 hours after treatment.

The subject of series [4] is Western flower thrips (Frankliniella occidentalis). The series is described as follows: Western flower thrips (Frankliniella occidentalis) cotton leaf disc test. The settings on record: foliar, 48 h, treated cotton leaf discs, 2 DAT, read-out: mortality in comparison with untreated controls. As to the method:
B.9. Western Flower Thrips (Frankliniella occidentalis)
The active compounds were formulated by a Tecan liquid handler in 100% cyclohexanone as a 10,000 ppm solution supplied in tubes. The 10,000 ppm solution was serially diluted in 100% cyclohexanone to make interim solutions. These served as stock solutions for which final dilutions were made by the Tecan in 50% acetone:50% water (v/v) into 10 or 20 ml glass vials. A nonionic surfactant (Kinetic®) was included in the solution at a volume of 0.01% (v/v). The vials were then inserted into an automated electrostatic sprayer equipped with an atomizing nozzle for application to plants/insects.
Small (˜2″ in height) cotton plants are sprayed with test compounds at concentrations ranging from 300 to 0.01 ppm in acetone/water through the automated VPS. After drying, cotton leaves are removed and circular leaf discs (˜1 cm diameter) are punched from the treated surface and transferred to clean 20 mL scintillation vials. Ten Western flower thrips (FRANOC) are aspirated into each scintillation vial. The vials with the leaf discs and thrips are kept in an upright incubator at 25° C. and 50% relative humidity with a 14:10 light:dark photoperiod. Each treatment is replicated twice.
Thrips mortality is assessed at 2 DAT (days after treatment), counting all thrips both dead and alive. [The average absolute mortality is calculated for each treatment.]

Series [5] relates to Southern Armyworm (Spodoptera eridania), 2nd Instar Larvae. Description: Southern armyworm 2nd instar larvae on sprayed lima bean plants. As to conditions: 96 h, 4 days after treatment, read-out: mortality in comparison with untreated controls. The method, then:
B.4. Southern Armyworm (Spodoptera eridania), 2nd Instar Larvae
The active compounds were formulated in cyclohexanone as a 10,000 ppm solution supplied in tubes. The tubes were inserted into an automated electrostatic sprayer equipped with an atomizing nozzle and they served as stock solutions for which lower dilutions were made in 50% acetone:50% water (v/v). A nonionic surfactant (Kinetic®) was included in the solution at a volume of 0.01% (v/v).
Lima bean plants (variety Sieva) were grown 2 plants to a pot and selected for treatment at the 1st true leaf stage. Test solutions were sprayed onto the foliage by an automated electrostatic plant sprayer equipped with an atomizing spray nozzle. The plants were dried in the sprayer fume hood and then removed from the sprayer. Each pot was placed into perforated plastic bags with a zip closure. About 10 to 11 armyworm larvae were placed into the bag and the bags zipped closed. Test plants were maintained in a growth room at about 25° C. and about 20-40% relative humidity for 4 days, avoiding direct exposure to fluorescent light (24 hour photoperiod) to prevent trapping of heat inside the bags. Mortality and reduced feeding were assessed 4 days after treatment, compared to untreated control plants.

The test system of series [6] is Diamond back moth (Plutella xylostella). The series is described as follows: Diamond back moth (Plutella xylostella) cabbage leaf dip test. The settings on record: foliar, 3rd instar larvae, 72 hours after treatment, read-out: mortality in comparison with untreated controls. The method, then: B.2. Diamond Back Moth (Plutella xylostella)
The active compound is dissolved at the desired concentration in a mixture of 1:1 (vol:vol) distilled water:acetone. Surfactant (Alkamuls® EL 620) is added at a rate of 0.1% (vol/vol). The test solution is prepared at the day of use.
Leaves of cabbage were dipped in test solution and air-dried. Treated leaves were placed in petri dish enlined with moist filter paper and inoculated with ten 3rd instar larvae. Mortality was recorded 72 hours after treatment. Feeding damages were also recorded using a scale of 0-100%.

Series [7] deals with Silverleaf Whitefly (Bemisia argentifolih) (Adults). Description: Silverleaf whitefly adults on sprayed cotton plants. As to conditions: 300 ppm, 3 days after treatment. The text has this:
B.3 Silverleaf Whitefly (Bemisia argentifolih) (Adults)
The active compounds were formulated in cyclohexanone as a 10,000 ppm solution supplied in tubes. The tubes were inserted into an automated electrostatic sprayer equipped with an atomizing nozzle and they served as stock solutions for which lower dilutions were made in 50% acetone:50% water (v/v). A non-ionic surfactant (Kinetic®) was included in the solution at a volume of 0.01% (v/v).
Cotton plants at the cotyledon stage (one plant per pot) were sprayed by an automated electrostatic plant sprayer equipped with an atomizing spray nozzle. The plants were dried in the sprayer fume hood and then removed from the sprayer. Each pot was placed into a plastic cup and about 10 to 12 whitefly adults (approximately 3-5 days old) were introduced. The insects were collected using an aspirator and a nontoxic Tygon® tubing connected to a barrier pipette tip. The tip, containing the collected insects, was then gently inserted into the soil containing the treated plant, allowing insects to crawl out of the tip to reach the foliage for feeding. Cups were covered with a reusable screened lid. […] Mortality was assessed 3 days after treatment, compared to untreated control plants.

Broadly, the mortality is the percentage killed.

Take `Cc1ccc(C(C)C)c(N2C(=O)CS/C2=N\N=C\c2ccc(-c3nccc(NC(=O)c4ccc(C(F)(F)F)cc4)n3)cc2)c1` [Example C-5, N-[2-[4-[(E)-[(Z)-[3-(2-isopropyl-5-methyl-phenyl)-4-oxo-thiazolidin-2-ylidene]hydrazono]methyl]phenyl]pyrimidin-4-yl]-4-(trifluoromethyl)benzamide]: the mortality at 2500 ppm in series [1] and in series [2] was > 75% each time.
Regarding `CC(C)c1ccccc1/N=C1\SCC(=O)N1/N=C/c1ccc(-c2cc(NC(=O)c3ccc(OC(F)(F)F)cc3)ncn2)cc1` [Example C-12, N-[6-[4-[(E)-[(2Z)-2-(2-isopropylphenyl)imino-4-oxo-thiazolidin-3-yl]iminomethyl]phenyl]pyrimidin-4-yl]-4-(trifluoromethoxy)benzamide], in series [2], the mortality at 2500 ppm was > 75%. Also, the mortality at 500 ppm in series [3], in series [5] and in series [6] was > 75% throughout. Moreover, the mortality at 300 ppm in series [4] was > 75%.
Take `CO[C@@H]1[C@@H](OC)[C@H](C)O[C@@H](O/N=C/c2ccc(-c3cc(NC(=O)c4ccc(OC(F)(F)F)cc4)ncn3)cc2)[C@@H]1OC` [Example C-13, 4-(trifluoromethoxy)-N-[6-[4-[(E)-[(2S,3R,4R,5S,6S)-3,4,5-trimethoxy-6-methyl-tetrahydropyran-2-yl]oxyiminomethyl]phenyl]pyrimidin-4-yl]benzamide]: the mortality at 2500 ppm in series [2] is > 75%.
Consider `CC(C)c1ccccc1NC(=S)NN=Cc1ccc(-c2cc(C(=N)Nc3ccc(OC(F)(F)F)cc3)ncn2)cc1` [Example C-25], for which the “mortality in comparison with untreated controls” value in series [7] is on record as “over 75%”.

The record behind these values is patent US12564191B2, “Pesticidal compounds” (priority 2020, dated 2026).
